pIC50: −log10 of the molar value. “And” between values parts separate entries of the source, which are not always exact repeats. Identical values can stand only once. Like-named read-outs stand apart in the source and are kept apart here.
Legend:
[1] = molecular target: OAT10 (Homo sapiens, UniProt Q9Y226); assay: [14C]-nicotinate uptake by OAT10-expressing Xenopus oocytes; type: cell-based; conditions: for Inhibition of OAT10 [14C]-nicotinate uptake: drug 100 μmol/L
Procedure: (§1) For uptake experiments, oocytes were washed four times with ND96 medium (pH 7.4) without pyruvate and gentamycin.
Chloride ion‐dependence was also assessed; in 0 Cl^− bath, NaCl was replaced by Na‐gluconate (Na‐Gluc), KCl by K‐gluconate (K‐Gluc), MgCl2 by Mg‐gluconate, and CaCl2 by Ca‐gluconate. […] Data are mean ± S.E. with n = 12–15.

[2] = molecular target: T1, NPT1 (Homo sapiens, UniProt Q14916); assay: [14C]-urate uptake by NPT1-expressing Xenopus oocytes; type: cell-based
T1 sequence (Q14916 1-467): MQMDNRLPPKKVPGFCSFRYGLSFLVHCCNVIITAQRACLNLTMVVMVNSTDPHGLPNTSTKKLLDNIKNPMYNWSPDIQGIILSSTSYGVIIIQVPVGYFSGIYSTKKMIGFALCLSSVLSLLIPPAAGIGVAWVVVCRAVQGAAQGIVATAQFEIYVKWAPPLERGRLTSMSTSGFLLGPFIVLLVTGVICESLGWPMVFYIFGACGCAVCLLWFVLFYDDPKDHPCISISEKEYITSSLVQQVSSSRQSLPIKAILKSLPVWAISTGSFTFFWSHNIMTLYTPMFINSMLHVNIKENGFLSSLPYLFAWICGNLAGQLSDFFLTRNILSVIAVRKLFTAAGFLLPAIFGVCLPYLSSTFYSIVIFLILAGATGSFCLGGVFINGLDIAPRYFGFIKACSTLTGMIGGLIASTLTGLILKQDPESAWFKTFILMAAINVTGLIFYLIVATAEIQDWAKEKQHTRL
Procedure: as §1
The uptake of [^14C]‐urate by NPT1‐expressing oocytes was performed in ND96 medium (pH 7.4) at ~25°C for 1 h. […] Data are mean ± S.E. with n = 12–15.

[3] = molecular target: T2, OAT1 (Homo sapiens, UniProt Q4U2R8); assay: [14C]-urate uptake by OAT1-expressing Xenopus oocytes; type: cell-based; conditions: drug 100 μmol/L
T2 sequence (Q4U2R8 1-563): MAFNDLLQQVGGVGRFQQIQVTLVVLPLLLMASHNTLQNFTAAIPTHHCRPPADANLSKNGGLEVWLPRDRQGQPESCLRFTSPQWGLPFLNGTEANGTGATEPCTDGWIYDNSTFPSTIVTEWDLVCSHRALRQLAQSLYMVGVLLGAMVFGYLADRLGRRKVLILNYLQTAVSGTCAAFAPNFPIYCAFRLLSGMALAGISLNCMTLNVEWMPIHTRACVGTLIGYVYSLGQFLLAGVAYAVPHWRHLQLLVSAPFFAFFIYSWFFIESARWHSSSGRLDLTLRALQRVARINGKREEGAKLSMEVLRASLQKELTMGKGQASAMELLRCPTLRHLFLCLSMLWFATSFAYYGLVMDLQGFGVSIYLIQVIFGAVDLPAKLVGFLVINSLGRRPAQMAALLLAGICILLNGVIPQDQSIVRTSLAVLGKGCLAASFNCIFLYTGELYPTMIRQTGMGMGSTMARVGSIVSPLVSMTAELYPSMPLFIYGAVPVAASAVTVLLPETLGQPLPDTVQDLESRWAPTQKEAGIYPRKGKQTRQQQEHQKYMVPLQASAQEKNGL
Excerpt: as §1

[4] = molecular target: T3, URAT1 (Homo sapiens, UniProt Q96S37); assay: [14C]-nicotinate uptake by URAT1-expressing Xenopus oocytes; type: cell-based
T3 sequence (Q96S37 1-553): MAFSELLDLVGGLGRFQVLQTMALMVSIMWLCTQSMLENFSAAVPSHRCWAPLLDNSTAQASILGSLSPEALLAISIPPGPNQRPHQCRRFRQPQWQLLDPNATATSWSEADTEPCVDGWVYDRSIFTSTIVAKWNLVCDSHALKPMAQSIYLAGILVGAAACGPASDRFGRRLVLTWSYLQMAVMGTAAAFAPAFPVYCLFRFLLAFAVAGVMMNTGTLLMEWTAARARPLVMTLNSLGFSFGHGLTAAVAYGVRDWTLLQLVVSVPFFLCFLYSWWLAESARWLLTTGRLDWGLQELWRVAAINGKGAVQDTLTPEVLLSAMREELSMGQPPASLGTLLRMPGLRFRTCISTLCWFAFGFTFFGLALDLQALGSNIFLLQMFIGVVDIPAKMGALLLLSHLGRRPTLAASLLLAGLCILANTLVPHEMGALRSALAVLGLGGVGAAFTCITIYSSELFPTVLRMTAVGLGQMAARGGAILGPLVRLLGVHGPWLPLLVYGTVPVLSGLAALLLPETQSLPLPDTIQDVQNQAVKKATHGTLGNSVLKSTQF
Excerpt: as §1
Data are mean ± S.E. with n = 12–15.

[5] = parameters: method as in Sundy and Kitt 2010; conditions: at least partially due to uricosuric effects; ref Sundy and Kitt 2010; cited from earlier work
[6] = test system: inflammation induced by monosodium urate (MSU) crystals; parameters: method as in Serafini and Emerling 2010; conditions: ref Serafini and Emerling 2010; cited from earlier work
[7] = PZA-preloaded oocytes, read-out: IC50, OAT10-mediated [14C]-nicotinate/PZA exchange

Chain of OAT10 (Q9Y226 whole entry): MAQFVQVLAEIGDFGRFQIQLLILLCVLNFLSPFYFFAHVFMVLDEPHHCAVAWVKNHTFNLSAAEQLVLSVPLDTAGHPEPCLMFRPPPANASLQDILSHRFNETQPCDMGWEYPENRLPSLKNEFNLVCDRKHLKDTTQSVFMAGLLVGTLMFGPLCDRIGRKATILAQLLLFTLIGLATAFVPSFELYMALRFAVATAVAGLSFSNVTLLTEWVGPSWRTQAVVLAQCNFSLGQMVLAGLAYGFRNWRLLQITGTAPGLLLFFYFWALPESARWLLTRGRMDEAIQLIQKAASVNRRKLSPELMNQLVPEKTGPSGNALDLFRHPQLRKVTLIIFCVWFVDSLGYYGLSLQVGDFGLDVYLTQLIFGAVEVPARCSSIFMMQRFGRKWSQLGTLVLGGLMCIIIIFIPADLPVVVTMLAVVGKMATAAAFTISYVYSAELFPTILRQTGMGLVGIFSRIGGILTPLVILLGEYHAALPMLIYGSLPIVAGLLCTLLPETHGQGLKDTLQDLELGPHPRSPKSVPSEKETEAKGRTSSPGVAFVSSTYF

Structure (SMILES)	pIC50 [1, 7]	Inhibition of OAT10 [14C]-nicotinate uptake [1]	pIC50 [2]	Inhibition of NPT1-mediated urate uptake ([2]; drug 100 μmol/L)	Inhibition of OAT1-mediated urate uptake [3]	Sensitivity of URAT1-mediated [14C]-nicotinate uptake to drug ([4]; data not shown)	Inhibition of NPT1-mediated urate uptake ([2]; drug 1.0 mmol/L)	pIC50 ([4]; PZA-preloaded oocytes, 40 μmol/L nicotinate, read-out: IC50, URAT1-mediated [14C]-nicotinate uptake ([14C]-nicotinate/PZA exchange))	pIC50 ([1]; without preloading, data not shown, read-out: IC50, OAT10-mediated [14C]-nicotinate uptake)	pIC50 ([2]; data not shown, read-out: IC50, [14C]-urate uptake by NPT1)	Effect on SUA in healthy human subjects [5]	Effect on inflammation induced by MSU crystals in vivo [6]
CCc1oc2ccccc2c1C(=O)c1cc(Br)c(O)c(Br)c1 [benzbromarone]	~4.64	inhibited	~4.77	effectively inhibited	effectively inhibited	–	–	–	–	–	–	–
CCCN(CCC)S(=O)(=O)c1ccc(C(=O)O)cc1 [probenecid]	–	–	–	–	–	very sensitive	only partially inhibited	–	–	–	–	–
COc1ccc(C=CC(=O)Nc2ccccc2C(=O)O)cc1OC [tranilast, N‐(3,4‐dimethoxycinnamoyl) anthranilic acid]	~4.37	inhibited	–	effectively inhibited	effectively inhibited	–	–	~3.72 and 3.72 and < 3.73	~4.38	~4.72	potent reduction in SUA	suppresses inflammation
